Where “and” joins values, the source holds several entries; their conditions need not be identical. Identical values can stand only once. Like-named read-outs stand apart in the source and are kept apart here.
What was measured:
[1] = Pharmacokinetics after intravenous administration of CK in rats (10 mg/kg); type: in vivo, Sprague-Dawley rats; details: male rats, i.v. 10 mg/kg; for MRT last: read-out: MRT(0-t); for half-life: read-out: t1/2z (converted)
Protocol: All samples were analyzed with a triple quadrupole LC-MS/MS (API 4000 LC-MS/MS, AB Sciex, Framingham, MA, USA) coupled with an Agilent 1200 HPLC system (Agilent Technologies, Palo Alto, CA, USA). The MS was equipped with an electrospray system (ESI). The N2 gas temperature and ion-spray voltage were set to 550 °C and 4.5 kV, respectively. CK was measured in multiple reaction monitoring (MRM) mode using a negative electrospray ionization source at m/z 667.4 → 621.2 for CK (CID 25.6 v) and m/z 271.2 → 228.8 for internal standard (IS, (E)-5-(4-fluorostyryl)-2-isopropylbenzene-1,3-diol, Welichem Biotech Inc., Wayburne Drive Burnaby, BC, Canada) (CID 28.3 v) with a dwell time of 0.1 s.
Rats were divided randomly into 5 groups of six animals each (sex in half) and given 7 days to acclimatize to the facility before the experiments began. The four forms of CK were suspended in 0.5% sodium carboxymethyl cellulose (CMC-Na) solution and orally administered to rats at a dose of 20 mg/kg. A CK solution in a mixed solvent of dimethyl sulfoxide (DMSO)/castor oil/physiologic saline (3:5:92, v/v) was intravenously administered to the remaining group via the tail vein at a dose of 10 mg/kg. Blood samples were collected by retro-orbital puncture at the following times: 0.167, 0.333, 0.667, 1, 2, 3, 4, 6, 9, 12, and 24 h for the oral administration, and at 0.0083, 0.05, 0.133, 0.25, 0.5, 1, 2, 4, 6, and 9 h for the intravenous administration. Plasma samples were obtained by centrifuging a heparinized blood tube at 4000 rpm for 5 min and then stored at −70 °C until analysis.
The procedure for drug extraction from plasma samples was as follows: 0.2 mL acetonitrile, 0.2 mL plasma sample, and 10 μL IS (1 µg/mL) were added into a 1.5 mL Eppendorf-type tube. This mixture was vortexed for 1 min and then treated with 0.8 mL of methyl tert-butyl ether (MTBE) to precipitate the plasma proteins. After a mechanical vortex for 1 min and subsequent centrifugation (4000 rpm, 5 min), 0.8 mL of the supernatant was transferred and blow-dried with N2 at 40 °C in a water bath. Finally, the residue was dissolved in 120 μL of mobile phase, and then 10 μL was subjected to HPLC for analysis. […] Intra- and inter-day precision and accuracy never exceeded 15% by analyzing six replicate samples.
The CK pharmacokinetic parameters in rats, including the area under the curve (AUC(0–t) and AUC(0–∞)), mean residence time (MRT(0–t) and MRT(0–∞)), maximum concentration (Cmax), time to maximum concentration (Tmax), half-life (t1/2), apparent distribution volume (V), and total plasma clearance (CL), were derived from plasma concentration-time curves by using non-compartmental analysis (NCA) with DAS 2.0 software (Drug And Statistics, Mathematical Pharmacology Professional Committee of China, Shanghai, China). The absolute bioavailability (Fabs) was calculated from the dose-adjusted ratio of AUCp.o. to AUCi.v.. One-way analysis of variance (ANOVA) by SPSS 11.5 (SPSS Inc., Chicago, IL, USA) was conducted to compare the primary PK parameters.

[2] = cited from earlier work
[3] = male, Sprague-Dawley, rat, plasma, iv, 10 mg/kg, Mean±SD, read-out: Plasma concentrations of CK
[4] = male, Sprague-Dawley, rat, plasma, iv, 10 mg/kg, individual rats 1-3, read-out: Plasma concentrations of CK
[5] = male, Sprague-Dawley, rat, plasma, iv, 10 mg/kg, Mean±SD
[6] = male, Sprague-Dawley, rat, plasma, iv, 10 mg/kg, individual rats 1-3

Q: With `CC(C)=CCCC(C)(OC1OC(CO)C(O)C(O)C1O)C1CCC2(C)C1C(O)CC1C3(C)CCC(O)C(C)(C)C3CCC12C` [CK, 20-O-β-D-glucopyranosyl-20(S)-protopanaxadiol] as the molecule, how does the “Plasma concentrations of CK” value ([1]; 1 h, individual rats 1-3, 10 mg/kg) read?
A: 75.42 ng/mL and 107.64 ng/mL

Q: What about the “Plasma concentrations of CK” value ([1]; 2 h, individual rats 1-3, 10 mg/kg) of the same molecule?
A: 41.16 ng/mL and 54.90 ng/mL

Q: What about the “Plasma concentrations of CK” value ([1]; 4 h, individual rats 1-3, 10 mg/kg) of the same molecule?
A: 42.63 ng/mL and 32.27 ng/mL and 85.89 ng/mL

Q: And the “Plasma concentrations of CK” value ([1]; 6 h, individual rats 1-3, 10 mg/kg)?
A: 14.03 ng/mL and 27.30 ng/mL

Q: What about the “Plasma concentrations of CK” value ([1]; 9 h, individual rats 1-3, 10 mg/kg) of the same molecule?
A: 11.73 ng/mL and 16.36 ng/mL

Q: And the CLz/F ([1]; Mean±SD)?
A: 90 ± 18 mL/min/kg

Q: And the Vz/F ([1]; Mean±SD)?
A: 24.21 ± 7.69 L/kg

Q: What about the “AUC(0-t)” value ([1]; individual rats 1-3, 10 mg/kg) of the same molecule?
A: 2963.73 ng·h/mL and 3980.16 ng·h/mL

Q: And the “AUC(0-∞)” value ([1]; individual rats 1-3, 10 mg/kg)?
A: 3012.98 ng·h/mL and 4074.46 ng·h/mL

Q: And the CLz/F ([1]; individual rats 1-3, 10 mg/kg)?
A: 77.7 mL/min/kg and 111 mL/min/kg and 81.8 mL/min/kg

Q: What about the “MRT(0-t)” value ([1]; individual rats 1-3, 10 mg/kg) of the same molecule?
A: 19.2 min and 27.2 min

Q: What about the “MRT(0-∞)” value ([1]; individual rats 1-3, 10 mg/kg) of the same molecule?
A: 22.8 min and 32.4 min and 47.4 min

Q: What about the Vz/F ([1]; individual rats 1-3, 10 mg/kg) of the same molecule?
A: 15.34 L/kg and 28.92 L/kg and 28.37 L/kg

Q: What about the t1/2z ([1]; individual rats 1-3, 10 mg/kg) of the same molecule?
A: 181 min and 241 min

Q: What about the concentration at 0.5 min [1, 3] of the same molecule?
A: 71700 ± 5620 ng/mL

Q: What about the concentration at 0.5 min [1, 4] of the same molecule?
A: 78100 ng/mL

Q: And the concentration at 0.05 h [1, 3]?
A: 17100 ± 5230 ng/mL

Q: What about the concentration at 0.05 h [1, 4] of the same molecule?
A: 21700 ng/mL

Q: What about the concentration at 8 min ([1]; male, Sprague-Dawley, rat, plasma, iv, 10 mg/kg, 8 min, Mean±SD, read-out: Plasma concentrations of CK) of the same molecule?
A: 2280 ± 940 ng/mL

Q: And the concentration at 0.25 h [1, 3]?
A: 1080 ± 359 ng/mL

Q: And the concentration at 0.25 h [1, 4]?
A: 1260 ng/mL

Q: What about the concentration at 0.5 h [1, 3] of the same molecule?
A: 333 ± 103 ng/mL

Q: And the concentration at 0.5 h [1, 4]?
A: 393 ng/mL

Q: What about the concentration at 1 h ([1]; male, Sprague-Dawley, rat, plasma, iv, 10 mg/kg, 1 h, Mean±SD, read-out: Plasma concentrations of CK) of the same molecule?
A: 95.5 ± 17.5 ng/mL

Q: And the concentration at 1 h ([1]; male, Sprague-Dawley, rat, plasma, iv, 10 mg/kg, 1 h, individual rats 1-3, read-out: Plasma concentrations of CK)?
A: 103 ng/mL

Q: What about the concentration at 2 h ([1]; male, Sprague-Dawley, rat, plasma, iv, 10 mg/kg, 2 h, Mean±SD, read-out: Plasma concentrations of CK) of the same molecule?
A: 52.1 ± 9.87 ng/mL

Q: What about the concentration at 2 h ([1]; male, Sprague-Dawley, rat, plasma, iv, 10 mg/kg, 2 h, individual rats 1-3, read-out: Plasma concentrations of CK) of the same molecule?
A: 60.3 ng/mL

Q: What about the concentration at 4 h ([1]; male, Sprague-Dawley, rat, plasma, iv, 10 mg/kg, 4 h, Mean±SD, read-out: Plasma concentrations of CK) of the same molecule?
A: 53.6 ± 28.4 ng/mL

Q: What about the concentration at 6 h ([1]; male, Sprague-Dawley, rat, plasma, iv, 10 mg/kg, 6 h, Mean±SD, read-out: Plasma concentrations of CK) of the same molecule?
A: 20.3 ± 6.66 ng/mL

Q: What about the concentration at 6 h ([1]; male, Sprague-Dawley, rat, plasma, iv, 10 mg/kg, 6 h, individual rats 1-3, read-out: Plasma concentrations of CK) of the same molecule?
A: 19.7 ng/mL

Q: What about the concentration at 9 h ([1]; male, Sprague-Dawley, rat, plasma, iv, 10 mg/kg, 9 h, Mean±SD, read-out: Plasma concentrations of CK) of the same molecule?
A: 12.4 ± 3.64 ng/mL

Q: And the concentration at 9 h ([1]; male, Sprague-Dawley, rat, plasma, iv, 10 mg/kg, 9 h, individual rats 1-3, read-out: Plasma concentrations of CK)?
A: 9.16 ng/mL

Q: What about the AUC(0-inf) [1, 5] of the same molecule?
A: 3790 ± 685 ng·h/mL

Q: What about the AUC(0-t) ([1]; male, Sprague-Dawley, rat, plasma, iv, 10 mg/kg, Mean±SD, read-out: AUC(0-t)) of the same molecule?
A: 3740 ± 684 ng·h/mL

Q: What about the MRT last [1, 5] of the same molecule?
A: 21.6 ± 4.8 min

Q: What about the MRT inf ([1]; male, Sprague-Dawley, rat, plasma, iv, 10 mg/kg, Mean±SD, read-out: MRT(0-∞)) of the same molecule?
A: 34.2 ± 12.6 min

Q: What about the half-life [1, 5] of the same molecule?
A: 186 ± 52.2 min

Q: What about the AUC(0-inf) [1, 6] of the same molecule?
A: 4290 ng·h/mL

Q: And the AUC(0-t) ([1]; male, Sprague-Dawley, rat, plasma, iv, 10 mg/kg, individual rats 1-3, read-out: AUC(0-t))?
A: 4260 ng·h/mL

Q: And the MRT last [1, 6]?
A: 18 min

Q: What about the half-life [1, 6] of the same molecule?
A: 137 min

Q: What about the “exposure levels of CK in females versus males” value ([2]; healthy Chinese subjects) of the same molecule?
A: higher

Q: And the “dose-normalized Cmax and t1/2 in females versus males” value ([2]; multiple-dose trial in humans, day 1 and day 15)?
A: significantly higher

From paper PMC8037814, “Polymorphic Characterization, Pharmacokinetics, and Anti-Inflammatory Activity of Ginsenoside Compound K Polymorphs” (Molecules, 2021)
